Experimental findings from publication PMC10028261, “Structural and ligand binding analysis of the pet allergens Can f 1 and Fel d 7” (Frontiers in Allergy, 2023) are described below.

Format in all cases: binding
The target in experiment [1] is T1, Fel d 7 (Felis catus, UniProt E5D2Z5).
T1 construct: wild-type, signal peptide absent, aa 27-170 for the crystal construct; GST tag cut with TEV; E. coli BL21(DE3)
Briefly: ANS displacement assay. Particulars: 2 uM ANS, 0.2 mg/ml protein, RT, 1 h; fatty acid 10 uM (Methods) or 1 uM (Figure 4 legend).

Experiment [2] addresses T2, Can f 1 (Canis lupus, UniProt O18873).
T2 construct: wild-type (C118S gene reverted to Cys118), signal peptide absent, borders aa 27-171 for the C118S crystal construct; 6His-GST tag cut with TEV; E. coli BL21(DE3)
Briefly: ANS displacement assay. Particulars: 2 uM ANS, 0.2 mg/ml protein, RT, 1 h; fatty acid 10 uM (Methods) or 1 uM (Figure 4 legend).

For experiment [3], the target named is T1, Fel d 7. Briefly: […]-methyl HSQC NMR stoichiometry. Particulars: labelled compound (methyl-13C-oleate); annealed at 80°C, excess lipid removed, PBS; cholate extraction.
The target of experiment [4] is T2, Can f 1. Briefly: […]-methyl HSQC NMR stoichiometry. Particulars: labelled compound (methyl-13C-oleate); annealed at 80°C, excess lipid removed, PBS; cholate extraction.

T2 sequence (O18873 27-171): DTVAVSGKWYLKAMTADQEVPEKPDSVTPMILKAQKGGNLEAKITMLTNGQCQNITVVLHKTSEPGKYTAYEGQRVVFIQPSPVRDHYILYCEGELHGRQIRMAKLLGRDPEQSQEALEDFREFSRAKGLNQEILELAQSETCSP
T1 sequence (E5D2Z5 27-170): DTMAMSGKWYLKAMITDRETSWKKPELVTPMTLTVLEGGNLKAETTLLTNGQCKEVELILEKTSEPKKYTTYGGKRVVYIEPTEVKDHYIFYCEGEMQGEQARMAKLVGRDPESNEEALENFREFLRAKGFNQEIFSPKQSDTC

`CC/C=C\C/C=C\C/C=C\CCCCCCCC(=O)N[C@@H](Cc1ccc(O)cc1)C(=O)O` [A2, N-(α-Linolenoyl) tyrosine]: the “% fluorescence reduction” value on Fel d 7 [1] and on Can f 1 [2] was over 50% each time.

For the molecule `CCCCCCCC/C=C\CCCCCCCC(=O)N[C@@H](CO)C(=O)O` [A4, N-Oleoyl-L-serine], the “% fluorescence reduction” value at Fel d 7 [1] and on Can f 1 [2] was over 50% in each case.

Regarding `CCCCC/C=C\C/C=C\CCCCCCCC(=O)NCC(=O)O` [D10, Linoleoyl glycine], the “% fluorescence reduction” value at Fel d 7 [1] and on Can f 1 [2] was over 50% each time.

For the molecule `CCCCCCCC/C=C\CCCCCCCC(=O)O` [oleic acid], the “stoichiometry (oleate:protein)” value at Fel d 7 [3] and on Can f 1 [4] was 2:1 each time.
